Data from PMC8148378 (Chemical Science, 2019).
≈ marks a conversion by molar mass, not a printed value.

Key:
E. faecalis ATCC-29212 = assay: MIC determination, larger panel; assay type: cell-based; settings: Enterococcus faecalis, ATCC29212, read-out: MIC E. faecalis
A. baumannii DSM-30008 = assay: MIC determination, larger panel; assay type: cell-based; settings: Acinetobacter baumannii, DSM30008, read-out: MIC A. baumannii, DSM-30008
E. coli WT-3 = assay: MIC determination, larger panel; assay type: cell-based; settings: Escherichia coli, WT3, read-out: MIC E. coli WT-3
E. aerogenes DSM-30053 = assay: MIC determination, larger panel; assay type: cell-based, Enterobacter aerogenes; settings: Klebsiella aerogenes, DSM30053, read-out: MIC E. aerogenes
E. cloacae DSM-30054 = assay: MIC determination, larger panel; assay type: cell-based; settings: Enterobacter cloacae, DSM30054, read-out: MIC E. cloacae
[1] = system: P. aeruginosa ESBL 1 DSM-24600; assay: MIC determination, larger panel; assay type: cell-based; settings: Pseudomonas aeruginosa, DSM24600, read-out: MIC P. aeruginosa ESBL 1
[2] = system: P. aeruginosa ESBL 2 DSM-46316; assay: MIC determination, larger panel; assay type: cell-based; settings: Pseudomonas aeruginosa, DSM46316, read-out: MIC P. aeruginosa ESBL 2
K. pneumoniae DSM-30104 = assay: MIC determination, larger panel; assay type: cell-based; settings: Klebsiella pneumoniae, DSM30104, read-out: MIC K. pneumoniae
S. marcescens DSM-30121 = assay: MIC determination, larger panel; assay type: cell-based; settings: Serratia marcescens, DSM30121, read-out: MIC S. marcescens
P. mirabilis DSM-4479 = assay: MIC determination, larger panel; assay type: cell-based; settings: Proteus mirabilis, DSM4479, read-out: MIC P. mirabilis
[3] = Single dosing pharmacokinetic study; assay type: in vivo, male CD-1 outbred mice; settings: 5 mg/kg, plasma
In vivo tolerance study = assay: In vivo tolerance study; parameters: species or system male CD-1 mice
[4] = Neutropenic thigh infection model, s.c. and i.v. administration; assay type: in vivo, neutropenic CD-1 mice; settings: male, CD-1, mouse, muscle, other: intravenous then subcutaneous
E. coli strain ATCC25922 = assay: as above; assay type: in vivo, neutropenic CD-1 mice; settings: 24 h after infection
E. coli ATCC25922 = assay: Neutropenic murine thigh infection model, i.v. administration; assay type: in vivo, male ICR mice

With `CC(C)Oc1c(NC(=O)c2ccc(NC(=O)[C@H](CC(N)=O)NC(=O)c3ccc(NC(=O)c4ccc(C#N)cc4)cc3)cc2)ccc(C(=O)Nc2ccc(C(=O)O)cc2)c1O` [Compound 22] as the compound, how does the MIC (E. faecalis ATCC-29212) read?
The MIC was 0.5 µg/mL (≈ 0.616 µM).

And the MIC (A. baumannii DSM-30008)?
Its MIC is 1 µg/mL (≈ 1.23 µM).

What about the MIC (E. coli WT-3) of the same compound?
Its MIC is 0.25 µg/mL (≈ 0.308 µM).

And the MIC (E. aerogenes DSM-30053)?
Its MIC is 0.06 µg/mL (≈ 0.0739 µM).

What about the MIC (E. cloacae DSM-30054) of the same compound?
The MIC was 0.25 µg/mL (≈ 0.308 µM).

What about the MIC [1] of the same compound?
The MIC was 4 µg/mL (≈ 4.93 µM).

What about the MIC [2] of the same compound?
Its MIC is 4 µg/mL (≈ 4.93 µM).

And the MIC (K. pneumoniae DSM-30104)?
The MIC was 0.5 µg/mL (≈ 0.616 µM).

And the MIC (S. marcescens DSM-30121)?
Its MIC is over 64 µg/mL.

What about the MIC (P. mirabilis DSM-4479) of the same compound?
The MIC was over 64 µg/mL.

And the “V/F (volume of distribution)” value ([3]; i.v.)?
Its value is 3.5 L/kg.

And the AUC ([3]; male, CD-1, mouse, iv, area under the curve (AUC), 5 mg kg^−1, plasma)?
The AUC was about 2000 ng·h/mL.

And the adverse effects (In vivo tolerance study; 5 mg kg^−1 i.v. four times every 6 hours (20 mg kg^−1 per day))?
The adverse effects was “no adverse effect”.

What about the adverse effects (In vivo tolerance study; 10 mg kg^−1 i.v. four times every 6 hours (40 mg kg^−1 per day)) of the same compound?
The adverse effects was “no adverse effect”.

And the adverse effects (In vivo tolerance study; 20 mg kg^−1 i.v. four times every 6 hours (80 mg kg^−1 per day))?
The adverse effects was “one animal in the group treated at 20 mg kg^−1 showed adverse effects”.

What about the concentration at 24 h [4] of the same compound?
Its concentration at 24 h is about 100 ng/mL.

What about the “reduction of the bacterial load in lung” value (E. coli strain ATCC25922) of the same compound?
Its value is 3 log units.

And the “bacterial load in kidney” value (E. coli strain ATCC25922; all dosing groups, compared to vehicle-treated animals)?
Its value is “complete bacterial clearance”.

And the “Log10 variation from vehicle control” value (E. coli ATCC25922; 20mg/kg/day i.v.)?
The value was −3.97 CFU/g.

And the “Log10 variation from vehicle control” value (E. coli ATCC25922; 40mg/kg/day i.v.)?
Its value is −5.32 CFU/g.

What about the “Log10 variation from vehicle control” value (E. coli ATCC25922; 50mg/kg/day i.v.) of the same compound?
Its value is −4.89 CFU/g.
